Structures can show the parent of a compound that is named as a salt.
Columns and labels:
Assay type in all cases: biochemical, rat (Male Sprague-Dawley)
dopamine uptake = experiment: DA (dopamine) uptake inhibition, synaptosomal preparation (striatum); conditions: rat striatum synaptosomes, 0.1 μM tritiated amine, 37° C., 4 minutes
Protocol: (§1) For the purpose of identifying compounds as biogenic amine uptake inhibitors capable of interacting with the uptake carrier, ligand-carrier binding assays were carried out as an initial sceen.
(§2) Male Sprague-Dawley derived rats, weighing about 180-250 g each (purchased from Sasco Animal Laboratories, Oregon, Wis.) were sacrificed by decapitation. The brains were immediately removed, placed on a chilled glass plate and dissected according to a modification of the method of Glowinski and Iversen (J. Glowinski and L. L. Iversen, J Neurochem, 1966, 13: 655-669). First, the rhombencephalon was separated by a transverse section and discarded. The rest of the brain was divided into two portions by making another transverse section at the level of the optic chiasma. The hypothalamus, which was used for norepinephrine uptake studies, was removed from the posterior part by using the anterior commissure as the horizontal reference point and a line between the posterior hypothalamus and mammillary bodies as the caudal limit. The striatum, which was used for dopamine uptake studies, was also dissected from the posterior portion using the external wall of the lateral ventricle as the internal limit and the corpus collosum as the external limit. The frontal parts of the striatum were removed from the anterior portion of the cerebrum and combined with the striatal tissue from the posterior segment. The cortex, which was used for serotonin uptake studies, was composed of the rest of the anterior portion of the cerebrum and the cortical surfaces removed from the posterior segment. The hypothalamus and the striatum each weighed about 100 mg or slightly less, whereas the cortex weighed up to 800 mg. The tissues were placed in a cold Potter-Elvehjem glass homogenizer with 5 (cortex) or 10 (hypothalamus) or 20 (striatum) volumes of ice-cold 0.32M sucrose, pH 7, and homogenized by hand. The homogenate was centrifuged (on a Multifuge®, American Scientific Products) at 2500 rpm for 10 minutes in a refrigerated room (~4° C.). The supernatant fraction containing the synaptosomes was decanted, mixed thoroughly and kept on crushed ice for use in the uptake studies.
(§3) Uptake studies were conducted according to the method of Snyder and Coyle (S. H. Snyder and J. T. Coyle, J Pharmacol Exp Ther, 1969, 165: 78-86) with minor modifications. Usually a 0.1 mL aliquot of the synaptosomal preparation was incubated in a mixture of 0.75 mL of modified Krebs-Ringerbuffer, 0.05 mL of the drug being tested, and 0.1 mL of a 1 μM solution of the labeled (tritiated) amine (final concentration 0.1 μM), for a total volume of 1 mL. The modified Krebs-Ringer bicarbonate buffer used in these studies contained 118 mM sodium chloride, 4 mM potassium chloride, 1.3 mM calcium chloride, 1.12 mM potassium dihydrogen phosphate, 1.2 mM magnesium sulfate and 24 mM sodium bicarbonate, with the addition of 5 mM glucose, 0.15 mM disodium EDTA, 12.5 μM nialamide and 1 mM ascorbic acid. Uptake was initiated by the addition of the tritiated amine and the mixture was incubated at 37° C. in a Dubnoff Metabolic Shaking Incubator for 4 minutes. A preincubation period was not included since it had been reported that results were similar with and without preincubation of the synaptosomal preparation (G. Vosmer, et al. Biochem Pharmacol, 1980, 24: 2557-2562). Control incubations without the test drug were conducted at 37° C. to determine total uptake and at 0° C. (in a crushed ice bath) to correct for the diffusion of the tritiated amine into the synaptosomes and/or binding.
(§4) Filtration was used to terminate uptake and collect the synaptosomes (C. A. Csernansky, et al. J Pharmacol Methods, 1985, 13: 187-191). In the filtration technique, the incubation mixture was diluted with ice-cold 0.9% aqueous sodium chloride solution and filtered through GF/B glass microfiber filters (Whatman) under reduced pressure. […]

5-HT (serotonin) uptake = 5-HT (serotonin) uptake inhibition, synaptosomal preparation (cortex); conditions: 5-hydroxytryptamine, rat cortex synaptosomes, 0.1 μM tritiated amine, 37° C., 4 minutes
Protocol: as §1, §2, §3, §4

norepinephrine uptake = experiment: NE (norepinephrine) uptake inhibition, synaptosomal preparation (hypothalamus); conditions: rat hypothalamus synaptosomes, 0.1 μM tritiated amine, 37° C., 4 minutes
Protocol: as §1, §2, §3, §4

Row | Structure (SMILES) | IC50 (dopamine uptake) | IC50 (5-HT (serotonin) uptake) | IC50 (norepinephrine uptake) | IC50 (dopamine uptake; hydrochloride) | IC50 (5-HT (serotonin) uptake; hydrochloride) | IC50 (norepinephrine uptake; hydrochloride)
1 | CN1CC2c3ccccc3CCC2CCC1Cc1ccccc1 (single isomer, unassigned; (-)) [Example 78, (-) 2-Methyl-1,3,4,5,5a,6,7,11b-octahydro-3-phenylmethyl-2H-naphth[1,2-c]azepine hydrochloride] | 189 nM | < 1000 nM | 9.7 nM |  |  | 
2 | CCN1CC2c3ccccc3CCC2C1Cc1cccc(C)c1 (stereo not drawn) [Example 13, cis-2 -Ethyl-2,3,3a,4,5,9b-hexahydro-3-(3-methylphenyl)methyl-1H-benz[e]isoindole hydrochloride] | 148 nM | 507 nM | 18 nM |  |  | 
3 | COc1ccc2c(c1)CCC1C2CN(C)C1Cc1cccc(F)c1 (stereo not drawn) [Example 27, trans-3-(3-Fluorophenyl)methyl-2,3,3a,4,5,9b-hexahydro-7-methoxy-2-methyl-1H-benz[e]isoindole hydrochloride] |  |  | 189 nM | 4590 nM | 2080 nM | 
4 | Fc1cccc(CC2NCC3c4ccccc4CCC23)c1 (stereo not drawn) [Example 15, cis-3-(3-Fluorophenyl)methyl-2,3,3a,4,5,9b-hexahydro-1H-benz[e]isoindole hydrochloride] | 7700 nM | 15000 nM | 347 nM |  |  | 
5 | CN1CC2c3ccc4c(c3CCC2C1Cc1cccc(F)c1)OCO4 (stereo not drawn) [Example 36, trans-3-(3-Fluorophenyl)methyl-2,3,3a,4,5,9b-hexahydro-2-methyl-6,7-methylenedioxy-1H-benz[e]isoindole methanesulfonic acid salt] | 952 nM | 964 nM | 62 nM |  |  | 
6 | CN1CC2c3ccccc3CCC2C1Cc1cccc(F)c1 (stereo not drawn) [Example 16, cis-3-(3-Fluorophenyl)methyl-2,3,3a,4,5,9b-hexahydro-2-methyl-1H-benz[e]isoindole hydrochloride] | 441 nM | 5450 nM | 50 nM |  |  | 
7 | CCN1CC2c3cccc(OC)c3CCC2C1Cc1ccccc1 (stereo not drawn) [Example 23, cis-2-Ethyl-2,3,3a,4,5,9 b-hexahydro-6-methoxy-3-phenylmethyl-1H-benz[e]isoindole methanesulfonic acid salt] | 141 nM | 1430 nM | 28 nM |  |  | 
8 | COc1ccc2c(c1OC)CCC1C2CN(C)C1Cc1ccccc1 (stereo not drawn) [Example 32, cis-6,7-Dimethoxy-2,3,3a,4,5,9b-hexahydro-2-methyl-3-phenylmethyl-1H-benz[e]isoindole hydrochloride] | 169 nM | 12700 nM | 113 nM |  |  | 
9 | COc1ccc2c(c1)CCC1C2CN(C)C1Cc1ccccc1 (stereo not drawn) [Example 2, cis-2,3,3a,4,5,9b-Hexahydro-7-methoxy-2-methyl-3-phenylmethyl-1H-benz[e]isoindole methanesulfonic acid salt] | 182 nM | 4160 nM | 58 nM |  |  | 
10 | COc1cccc2c1CCC1CCC(Cc3ccccc3)N(C)CC21 (single isomer, unassigned) [Example 76A, 8-Methoxy-2-methyl-1,3,4,5,5a,6,7,11b-octahydro-3-phenylmethyl-2H-naphth[1,2-c]azepine hydrochloride] |  |  |  | 529 nM | 386 nM | 3.5 nM
11 | COc1ccc2c(c1)CCC1CC(Cc3ccccc3)N(C)CC21 (stereo not drawn) [Example 72, cis-8-Methoxy-2-methyl-1,2,3,4,4a,5,6,10b-octahydro-3-phenylmethyl-benz[f]isoquinoline hydrochloride] | 1010 nM | 5750 nM | 64 nM |  |  | 
12 | CN1CC2c3ccccc3CCC2C1Cc1ccccc1 (stereo not drawn) [Example 10, trans-2,3,3a,4,5,9b-Hexahydro-2-methyl-3-phenylmethyl-1H-benz[e]isoindole methanesulfonic acid salt] | 6720 nM | 13500 nM | 454 nM |  |  | 
13 | COc1cccc2c1CCC1C2CN(C)C1Cc1cccc(F)c1 (stereo not drawn) [Example 24, cis-3-(3-Fluorophenyl)methyl-2,3,3a,4,5,9b-hexahydro-6-methoxy-2-methyl-1H-benz[e]isoindole hydrochloride] | 170 nM | 2470 nM | 104 nM |  |  | 
14 | CN1C[C@@H]2c3ccccc3CC[C@@H]2CCC1Cc1ccccc1 (relative stereo) [Example 77, (+)-cis-2-Methyl-1,3,4,5,5a,6,7,11b-octahydro-3-phenylmethyl-2H-naphth[1,2-c]azepine hydrochloride] | 5170 nM | 4170 nM | 190 nM |  |  | 
15 | CN1CC2c3ccccc3CCC2C1Cc1ccccc1 (stereo not drawn) [Example 9, cis-2,3,3a,4,5,9b-Hexahydro-2-methyl-3-phenylmethyl-1H-benz[e]isoindole methanesulfonic acid salt] | 540 nM | 6600 nM | 48 nM |  |  | 
16 | COc1cccc2c1CCC1C2CN(C)C1Cc1ccccc1 (stereo not drawn) [Example 22, cis-2,3,3a,4,5,9 b-Hexahydro-6-methoxy-2-methyl-3-phenylmethyl-1H-benz[e]isoindole methanesulfonic acid salt] | 368 nM | 3440 nM | 60 nM |  |  | 
17 | CN1CC2c3ccccc3CCC2C1Cc1ccc(F)cc1 (stereo not drawn) [Example 18, cis-3-(4-Fluorophenyl)methyl-2,3,3a,4,5,9b-hexahydro-2-methyl-1H-benz[e]isoindole methanesulfonic acid salt] | 4820 nM | 2910 nM | 241 nM |  |  | 
18 | COc1ccc2c(c1)CCC1C(Cc3ccccc3)NCC21 (mixture of isomers) [Example 1, cis/trans 2,3,3a,4,5,9b-Hexahydro-7-methoxy-3-phenylmethyl-1H-benz[e]isoindole hydrochloride] |  |  |  | 7620 nM | 7290 nM | 524 nM
19 | Fc1ccc(CC2NCC3c4ccccc4CCC23)cc1 (stereo not drawn) [Example 17, 3-(4-Fluorophenyl)methyl-2,3,3a,4,5,9b-hexahydro-1 H-benz[e]isoindole methanesulfonic acid salt] | 9200 nM | 11000 nM | 665 nM |  |  | 
20 | COc1ccc2c(c1)CCC1C(Cc3ccccc3)NCC21 (stereo not drawn) [Example 6, trans-2,3,3a,4,5,9b-Hexahydro-7-methoxy-3-phenylmethyl-1H-benz[e]isoindole methanesulfonic acid salt] | 10100 nM | 6510 nM | 543 nM |  |  | 
21 | COc1ccc2c(c1)CC[C@H]1[C@@H]2CN(C)[C@@H]1Cc1ccccc1 (relative stereo) [Example 8, cis-anti-2,3,3a,4,5,9b-Hexahydro-7-methoxy-2-methyl-3-phenylmethyl-1H-benz[e]isoindole methanesulfonic acid salt] | 4700 nM | 2700 nM | 120 nM |  |  | 
22 | COc1ccc2c(c1OC)CCC1C(Cc3ccccc3)NCC21 (stereo not drawn) [Example 31, hydrochloride] | 5420 nM | 14000 nM | 592 nM |  |  | 
23 | CN1CC2c3ccccc3CCC2CCC1Cc1ccccc1 (single isomer, unassigned) [Example 75B, cis-2-Methyl-1,3,4,5,5a,6,7,11b-octahydro-3-phenylmethyl-2H-naphth[1,2-c]azepine hydrochloride] |  |  |  | 2810 nM | 4130 nM | 513 nM
24 | COc1ccc2c(c1)CCC1C2CN(C)C1Cc1ccccc1 (stereo not drawn) [Example 7, trans-2,3,3a,4,5,9b-Hexahydro-7-methoxy-2-methyl-3-phenylmethyl-1H-benz[e]isoindole] | 13400 nM | 12200 nM | 322 nM |  |  | 

Source: patent publication US5248677A, “Biogentic amine uptake inhibitors” (priority 1992, dated 1993)
